Columns and labels:
[1] = target: Monoamine transporters; Norepininephrine & dopamine (Rattus norvegicus) (UniProt P23977+Q9WTR4); assay: Relative affinity for dopamine and norepinephrine transporters; format: protein assay
[2] = species: Rattus norvegicus; assay: Relative affinity for dopamine transporter and muscarinic acetylcholine M1 receptor
[3] = target: Sodium-dependent dopamine transporter (Rattus norvegicus, UniProt P23977); assay: Displacement of [3H]WIN-35428 from dopamine transporter of rat brain membrane; format: tissue-based
Sequence of Sodium-dependent dopamine transporter (P23977 whole entry): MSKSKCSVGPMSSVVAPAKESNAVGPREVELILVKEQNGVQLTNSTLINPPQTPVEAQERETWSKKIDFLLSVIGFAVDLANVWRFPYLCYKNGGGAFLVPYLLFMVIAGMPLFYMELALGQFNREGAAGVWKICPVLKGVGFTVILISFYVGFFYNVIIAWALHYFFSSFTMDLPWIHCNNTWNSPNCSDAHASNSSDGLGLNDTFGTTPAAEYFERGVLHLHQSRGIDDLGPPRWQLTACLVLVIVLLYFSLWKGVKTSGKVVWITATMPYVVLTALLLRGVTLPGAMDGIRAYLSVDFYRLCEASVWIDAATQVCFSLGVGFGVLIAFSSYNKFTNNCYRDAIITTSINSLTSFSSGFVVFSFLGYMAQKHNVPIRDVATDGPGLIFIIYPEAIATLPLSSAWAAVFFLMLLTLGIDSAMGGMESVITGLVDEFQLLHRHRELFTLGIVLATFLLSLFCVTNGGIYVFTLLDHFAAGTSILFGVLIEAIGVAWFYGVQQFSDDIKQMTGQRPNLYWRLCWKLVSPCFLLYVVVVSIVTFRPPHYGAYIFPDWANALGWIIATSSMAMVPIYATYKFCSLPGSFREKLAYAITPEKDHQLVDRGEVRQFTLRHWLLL

[4] = target: T1, Sodium-dependent serotonin transporter (Rattus norvegicus, UniProt P31652); assay: Displacement of [3H]-citalopram from serotonin transporter of rat brain membrane; format: tissue-based
T1 sequence (P31652 whole entry): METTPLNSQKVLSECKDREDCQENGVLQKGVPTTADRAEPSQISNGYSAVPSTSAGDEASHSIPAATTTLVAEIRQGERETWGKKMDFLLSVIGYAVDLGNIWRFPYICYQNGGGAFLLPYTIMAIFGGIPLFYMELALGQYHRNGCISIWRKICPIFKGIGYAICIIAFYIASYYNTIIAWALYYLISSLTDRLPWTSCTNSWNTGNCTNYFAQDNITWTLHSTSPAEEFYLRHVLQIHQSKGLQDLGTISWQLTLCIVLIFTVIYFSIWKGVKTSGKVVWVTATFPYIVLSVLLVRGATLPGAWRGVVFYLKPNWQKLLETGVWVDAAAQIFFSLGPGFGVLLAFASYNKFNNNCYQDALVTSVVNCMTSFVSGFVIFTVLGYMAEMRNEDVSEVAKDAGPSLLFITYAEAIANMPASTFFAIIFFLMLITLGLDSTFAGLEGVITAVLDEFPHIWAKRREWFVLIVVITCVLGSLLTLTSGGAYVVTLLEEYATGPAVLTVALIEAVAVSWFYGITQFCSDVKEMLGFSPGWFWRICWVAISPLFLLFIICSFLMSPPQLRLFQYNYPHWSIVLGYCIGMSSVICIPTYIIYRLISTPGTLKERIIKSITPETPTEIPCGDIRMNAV

[5] = target: Norepinephrine transporter (Rattus norvegicus, UniProt Q9WTR4); assay: Displacement of [3H]-[…] from norepinephrine transporter of rat brain membrane; format: tissue-based
Sequence of Norepinephrine transporter (Q9WTR4 whole entry): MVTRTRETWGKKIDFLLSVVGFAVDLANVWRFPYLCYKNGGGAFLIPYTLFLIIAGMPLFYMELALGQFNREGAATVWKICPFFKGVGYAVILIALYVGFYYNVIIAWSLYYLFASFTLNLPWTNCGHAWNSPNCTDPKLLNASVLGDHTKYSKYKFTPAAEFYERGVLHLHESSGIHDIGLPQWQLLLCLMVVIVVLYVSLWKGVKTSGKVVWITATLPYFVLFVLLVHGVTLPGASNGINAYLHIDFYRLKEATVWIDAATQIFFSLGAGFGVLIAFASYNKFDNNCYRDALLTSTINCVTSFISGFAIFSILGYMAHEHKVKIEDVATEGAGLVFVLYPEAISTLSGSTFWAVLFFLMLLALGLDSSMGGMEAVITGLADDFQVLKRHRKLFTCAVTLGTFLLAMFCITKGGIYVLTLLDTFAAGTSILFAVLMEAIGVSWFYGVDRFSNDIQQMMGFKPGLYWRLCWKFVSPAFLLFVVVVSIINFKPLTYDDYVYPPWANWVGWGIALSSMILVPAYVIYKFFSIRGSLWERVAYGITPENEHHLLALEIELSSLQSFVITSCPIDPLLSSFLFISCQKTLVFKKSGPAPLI

[6] = target: Monoamine transporters; serotonin & dopamine (Rattus norvegicus) (UniProt P31652+P23977); assay: Relative affinity for dopamine and serotonin transporters; format: protein assay
Sequence of Monoamine transporters; serotonin & dopamine (Rattus norvegicus) (P23977 whole entry, looked up): as the sequence (P23977 whole entry) above
Sequence of Monoamine transporters; serotonin & dopamine (Rattus norvegicus) (P31652 whole entry, looked up): as the sequence (P31652 whole entry) above

[7] = target: T2, Muscarinic acetylcholine receptor M1 (Rattus norvegicus, UniProt P08482); assay: Displacement of [3H]pirenzepine from muscarinic acetylcholine receptor M1 of rat brain membrane
T2 sequence (P08482 whole entry): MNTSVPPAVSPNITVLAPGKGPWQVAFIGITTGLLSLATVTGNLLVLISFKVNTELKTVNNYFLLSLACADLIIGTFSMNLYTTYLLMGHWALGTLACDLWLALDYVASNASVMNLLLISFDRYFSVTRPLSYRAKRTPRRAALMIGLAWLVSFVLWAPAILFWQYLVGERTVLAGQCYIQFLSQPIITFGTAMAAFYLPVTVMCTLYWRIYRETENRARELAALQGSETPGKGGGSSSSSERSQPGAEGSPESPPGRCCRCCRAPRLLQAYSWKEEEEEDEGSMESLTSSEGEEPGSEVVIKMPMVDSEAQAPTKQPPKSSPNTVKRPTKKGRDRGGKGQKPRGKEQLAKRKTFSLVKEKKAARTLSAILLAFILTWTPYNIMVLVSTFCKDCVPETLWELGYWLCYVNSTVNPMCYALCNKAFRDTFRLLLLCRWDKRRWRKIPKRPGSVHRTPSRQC

[8] = target: T1, Sodium-dependent serotonin transporter; assay: Displacement of [3H]citalopram from serotonin transporter of rat brain membrane; format: tissue-based

Row | SMILES | Selectivity [1] | Selectivity [2] | Ki [3] | Ki [4] | Ki [5] | Selectivity [6] | Ki [7] | Ki [8]
1 | CN1C2C[C@H](OC(c3ccc(F)cc3)c3ccc(F)cc3)CC1[C@@H](C(=O)OCc1ccccc1)C2 (stereo partly specified) | 52 | 19 | 119 nM | 5850 nM | 6210 nM | 49 | 2270 nM | –
2 | CN1C2C[C@H](OC(c3ccc(F)cc3)c3ccc(F)cc3)CC1[C@@H](C(=O)OCCc1ccccc1)C2 (stereo partly specified) | 33 | 20 | 171 nM | 7960 nM | 5690 nM | 47 | 3480 nM | –
3 | CN1C2C[C@H](OC(c3ccc(F)cc3)c3ccc(F)cc3)CC1[C@@H](C(=O)Oc1ccccc1)C2 (stereo partly specified) | 13 | 5 | 107 nM | 3730 nM | 1370 nM | 35 | 552 nM | –
4 | CN1C2CC(OC(c3ccc(F)cc3)c3ccc(F)cc3)CC1[C@@H](O)C2 (stereo partly specified) | 207 | 8 | 6.28 nM | – | 1300 nM | 1450 | 48.3 nM | 9090 nM
5 | CCOC(=O)[C@H]1CC2C[C@H](OC(c3ccc(F)cc3)c3ccc(F)cc3)CC1N2C (stereo partly specified) | 49 | 2 | 75.4 nM | 14000 nM | 3720 nM | 186 | 142 nM | –
6 | COC(=O)[C@H]1CC2C[C@H](OC(c3ccc(F)cc3)c3ccc(F)cc3)CC1N2C (stereo partly specified) | 121 | 8 | 57.1 nM | 16500 nM | 6910 nM | 289 | 432 nM | –
7 | COS(=O)(=O)[C@H]1CC2C[C@H](OC(c3ccc(F)cc3)c3ccc(F)cc3)CC1N2C (stereo partly specified) | 85 | 8 | 81 nM | 13800 nM | 6880 nM | 170 | 617 nM | –
8 | O=C(Oc1ccccc1)[C@H]1CC2C[C@H](OC(c3ccc(F)cc3)c3ccc(F)cc3)CC1N2 (stereo partly specified) | 18 | 48 | 175 nM | 4440 nM | 3170 nM | 25 | 8430 nM | –
9 | CC(C)COC(=O)[C@H]1CC2C[C@H](OC(c3ccc(F)cc3)c3ccc(F)cc3)CC1N2C (stereo partly specified) | 45 | 5 | 148 nM | 7960 nM | 6610 nM | 54 | 723 nM | –
10 | COC(=O)[C@@H]1C2CC[C@@H](C[C@@H]1OC(=O)c1ccccc1)N2C (single isomer, unassigned) [COCAINE] | – | – | – | – | – | – | 61400 nM | –
11 | CC(C)OC(=O)[C@H]1CC2C[C@H](OC(c3ccc(F)cc3)c3ccc(F)cc3)CC1N2C (stereo partly specified) | 68 | 5 | 151 nM | 14800 nM | 10200 nM | 98 | 784 nM | –
12 | CN1C2CC(OC(c3ccc(F)cc3)c3ccc(F)cc3)CC1[C@@H](C(=O)O)C2 (stereo partly specified) | 238 | 8 | 5.81 nM | 8290 nM | 1380 nM | 1430 | 46.8 nM | –
13 | CN1C2CCC1CC(OC(c1ccc(F)cc1)c1ccc(F)cc1)C2 (stereo unspecified) [DIFLUOROBENZTROPINE] | – | – | – | – | 844 nM | – | – | –
14 | CN1C2CC(OC(c3ccc(F)cc3)c3ccc(F)cc3)CC1[C@H](O)C2 (stereo partly specified) | 204 | 1 | 31.3 nM | 11700 nM | 6390 nM | 374 | 27 nM | –
